Source: patent US20260097036A1 (Kadmon Corporation, LLC, priority 2022, published 2026)
Read-outs that look alike come from different tables or passages of the source.

Columns and labels:
[1] = solubility and natural pH of the API; type: physicochemical
[2] = excipient compatibility testing of dry binary mixes; type: physicochemical; conditions: binary mixes 1:1; 2-8° C. and 40° C./75% RH, over a 14-day period
Protocol: The dry binary mixes were analyzed for appearance and related substances after storage at 2-8° C. (control storage condition) and 40° C./75% RH for 14 days and 28 days. The binary mixes were also tested for visual appearance at initial mixing.

[3] = stability study with pH modifiers, XRPD of isolated solids (samples 2.1-2.6); type: physicochemical; conditions: T = 28 days 40° C./75% RH
Protocol: Samples were prepared containing sodium benzoate as a preservative and with the pH adjusted with either citric acid or tartaric acid which were compared with samples having no pH modifier.
The above samples were prepared for XRPD analysis in three steps: solids were isolated by centrifugation at 3000 rpm for 20 minutes; the supernatant was decanted; and the samples were dried under vacuum at ambient temperature for 18-24 hours overnight. XRPD data of the solid samples was obtained.

[4] = Part 2 relative bioavailability and food effect, plasma PK; type: in vivo, human; conditions: for Tlag / AUC % extrap / Lambda-z / half-life / Tmax / AUC(0-inf) / AUC(0-t) / Cmax / Vd/F: plasma; for half-life / Tmax / AUC(0-inf) / AUC(0-t) / Cmax / Vd/F: male, human, 200 mg; for Cmax: read-out: Cmax; for Vd/F: read-out: Vz/F
Protocol: Subjects underwent preliminary screening procedures to determine their eligibility for Part 2 of the study at the screening visit (Day −28 to Day −2 of Part 2). Subjects who took part in Part 1 of the study were permitted to take part in Part 2.
Three different regimens (G, H, and I), were used over the three periods. In Regimen G, belumosudil was administered in Tablet form (reference); and in Regimens H and I, belumosudil was administered in the form of Oral Liquid Formulation.
In Period 1, Day 1: subjects were randomized prior to administration of the first dose of IMP to 1 of 6 treatment sequences (GHI, HIG, IGH, IHG, GIH and HGI) with 3 subjects assigned to each treatment sequence. On Day 1 of each study period (periods 1, 2 and 3), subjects received the regimens in Table 36:
Regimen H was administered to subjects as a flavorless low sucralose liquid formulation in a fasted state, and Regimens G and I were administered to subjects in a fed state. Regimen G was administered with a total of 240 mL of water. For Regimens H and I, immediately after IMP administration, subjects consumed water to a total volume of 240 mL (including the dosing volume).
Subjects received a single dose of IMP in the morning of Day 1 following an overnight fast of a minimum of 10 h (Regimen H, fasted state) or following a standard breakfast (Regimens G and I, fed state). Blood samples were collected at regular intervals for PK analysis. Following administration of Regimen H, subjects completed a written taste/palatability questionnaire individually and privately.
Subjects were resident in the clinical unit for 10 consecutive nights that covered all 3 treatment periods. All subjects remained on site until 72 h post-final dose for safety and PK assessments. There was a minimum washout of 3 days between each IMP administration. To ensure the ongoing wellbeing of the subjects, a follow-up phone call took place 3 to 7 days post-final dose. If a subject reported any AEs after discharge which represented a cause for concern, they were required to attend the clinical unit for a follow-up assessment. This would have been an unscheduled visit.

pro-fibrotic signaling = conditions: in vitro; cited from earlier work
animal models of cGVHD = conditions: in vivo; cited from earlier work
[5] = cited from earlier work
[6] = po, Regimen G: 200 mg Tablet, Fed, single oral dose, geometric mean (CV%)
[7] = po, Regimen H: 200 mg Liquid Formulation, Fasted, single oral dose, geometric mean (CV%)
[8] = po, Regimen I: 200 mg Liquid Formulation, Fed, single oral dose, geometric mean (CV%)

## CC(C)NC(=O)COc1cccc(-c2nc(Nc3ccc4[nH]ncc4c3)c3ccccc3n2)c1 [Belumosudil, 2-{3-[4-(1H-indazol-5-ylamino)-2-quinazolinyl]phenoxy}-N-(propan-2-yl)acetamide, reference compound]
[1]; API in water
  natural pH of API in water: ~3 pH
[1]; at pH 2.0-3.0
  solubility: soluble
[2]
  compatibility with hydrochloric acid and maleic acid: not compatible
[3]
  XRPD of isolated solids (form stability): stable in the formulation
[4]; Regimen G: 200 mg Tablet, Fed, single oral dose, healthy male volunteers, median (range)
  Tlag: 0.500 h
[4]; Regimen G: 200 mg Tablet, Fed, single oral dose, geometric mean (CV%)
  AUC % extrap: 2.601 (44.8%)
[4]; Regimen G: 200 mg Tablet, Fed, single oral dose, geometric mean (CV%), individual values where n <= 2
  Lambda-z: 0.074 (57.7%) l/h
[4]; Regimen H: 200 mg Liquid Formulation, Fasted, single oral dose, healthy male volunteers, median (range)
  Tlag: 0.00 h
[4]; Regimen H: 200 mg Liquid Formulation, Fasted, single oral dose, geometric mean (CV%)
  AUC % extrap: 2.785 (50.4%)
[4]; Regimen H: 200 mg Liquid Formulation, Fasted, single oral dose, geometric mean (CV%), individual values where n <= 2
  Lambda-z: 0.073 (43.5%) l/h
[4]; Regimen I: 200 mg Liquid Formulation, Fed, single oral dose, healthy male volunteers, median (range)
  Tlag: 0.00 h
[4]; Regimen I: 200 mg Liquid Formulation, Fed, single oral dose, geometric mean (CV%)
  AUC % extrap: 1.918 (34.9%)
[4]; Regimen I: 200 mg Liquid Formulation, Fed, single oral dose, geometric mean (CV%), individual values where n <= 2
  Lambda-z: 0.102 (49.2%) l/h
[4]; both in the fed state, GMR comparison
  peak (Cmax) and total exposure (AUC), liquid formulation vs tablet: largely similar to that of the tablet reference
[4]; liquid formulation, fasted and fed (Regimens H and I)
  time from which concentrations were evident: 0.5 h
[4]; oral, Regimen G, tablet fed, read-out: elimination half-lives (range)
  half-life: 4.84 to 33 h
[4]; oral, Regimen H, liquid formulation fasted, read-out: elimination half-lives (range)
  half-life: 5.36 to 23.8 h
[4]; oral, Regimen I, liquid formulation fed, read-out: elimination half-lives (range)
  half-life: 2.38 to 15.7 h
[4]; oral, Regimens G, H, I, read-out: geometric mean half-life (range over regimens)
  half-life: 6.79 to 9.5 h
[4]; po, Regimen G: 200 mg Tablet, Fed, single oral dose, healthy male volunteers, median (range), read-out: Tmax
  Tmax: 3 h
[4]; [6]
  AUC(0-inf): 10200 ng·h/mL
  Cmax: 1930 ng/mL
  Vd/F: 265 L
[4]; po, Regimen G: 200 mg Tablet, Fed, single oral dose, geometric mean (CV%), individual values where n <= 2, read-out: T1/2 (converted)
  half-life: 9.39 h
[4]; po, Regimen G: 200 mg Tablet, Fed, single oral dose, geometric mean (CV%), read-out: AUC (0-24)
  AUC(0-t): 9310 ng·h/mL
[4]; po, Regimen G: 200 mg Tablet, Fed, single oral dose, geometric mean (CV%), read-out: AUC (0-last)
  AUC(0-t): 9720 ng·h/mL
[4]; po, Regimen H: 200 mg Liquid Formulation, Fasted, single oral dose, healthy male volunteers, median (range), read-out: Tmax
  Tmax: 1.5 h
[4]; [7]
  AUC(0-inf): 8430 ng·h/mL
  Cmax: 1550 ng/mL
  Vd/F: 325 L
[4]; po, Regimen H: 200 mg Liquid Formulation, Fasted, single oral dose, geometric mean (CV%), individual values where n <= 2, read-out: T1/2 (converted)
  half-life: 9.5 h
[4]; po, Regimen H: 200 mg Liquid Formulation, Fasted, single oral dose, geometric mean (CV%), read-out: AUC (0-24)
  AUC(0-t): 7620 ng·h/mL
[4]; po, Regimen H: 200 mg Liquid Formulation, Fasted, single oral dose, geometric mean (CV%), read-out: AUC (0-last)
  AUC(0-t): 8010 ng·h/mL
[4]; [8]
  AUC(0-inf): 9500 ng·h/mL
  Cmax: 1790 ng/mL
  Vd/F: 206 L
[4]; po, Regimen I: 200 mg Liquid Formulation, Fed, single oral dose, geometric mean (CV%), individual values where n <= 2, read-out: T1/2 (converted)
  half-life: 6.79 h
[4]; po, Regimen I: 200 mg Liquid Formulation, Fed, single oral dose, geometric mean (CV%), read-out: AUC (0-24)
  AUC(0-t): 9340 ng·h/mL
[4]; po, Regimen I: 200 mg Liquid Formulation, Fed, single oral dose, geometric mean (CV%), read-out: AUC (0-last)
  AUC(0-t): 9570 ng·h/mL
[4]; po, single oral 200 mg as liquid formulation, fasted state, read-out: median Tmax
  Tmax: 1.5 h
[4]; po, single oral 200 mg as tablet reference, fed, read-out: median Tmax
  Tmax: 3 h
pro-fibrotic signaling
  aberrant pro-fibrotic signaling: inhibited aberrant pro-fibrotic signaling
Animal models of cGVHD
  activity in animal models of cGVHD: demonstrated activity
[5]
  solubility in water: practically insoluble
